# Legend:
# MCF-7 cells [1] = settings: 24 hours, FIG. 3
# Protocol: The MCF-7 cells were treated with aripiprazole (1, 5, 10, 20 μM) alone or in combination with radiation. After 24 hours, after washing with PBS, proteins were extracted from the cells, and the degree of PARP cleavage was confirmed by Western blot.
# (§1) After 24 hours, after washing with PBS, proteins were extracted from the cells, and the degree of PARP cleavage was confirmed by Western blot.
# as §1
# U251 cells = assay: DNA fragmentation, Cell Death Detection ELISA plus kit; format: cell-based; settings: U251, combination with radiation vs single treatments, 24 hours, FIG. 4
# Protocol: (§2) After the MCF-7 cells or U251 cells were adjusted to a concentration of 5000 cells/well, they were inoculated into a 96 well plate and pre-cultured for 24 hours. Thereafter, the medium was removed and aripiprazole was treated alone or in combination with radiation. After 24 hours, the degree of DNA fragmentation was confirmed using Roche's Cell Death Detection ELISA plus kit.
# MCF-7 cells [2] = settings: MCF-7, combination with radiation vs single treatments, 24 hours, FIG. 4
# Protocol: as §2
# (§3) After 24 hours, the degree of DNA fragmentation was confirmed using Roche's Cell Death Detection ELISA plus kit.
# as §3
# MCF-7 cells [3] = assay: Cell viability at various aripiprazole concentrations alone or with radiation (EZ-Cytox); format: cell-based, human; settings: 96 hours, FIG. 2
# Protocol: In order to confirm the effect of aripiprazole on radiation sensitivity in cancer cells, a cell viability measurement experiment was performed in breast cancer cells having radiation resistance using the […] as follows. After the MCF-7 cells were adjusted to a concentration of 5000 cells/well, they were inoculated into a 96-well plate and pre-cultured for 24 hours. Thereafter, the medium was removed and aripiprazole ([…]) was treated alone or in combination with radiation. After 96 hours, the survival rate of cells was measured by Dogen's EZ-Cytox Cell Viability Assay kit.
# MCF-7 cells [4] = assay: Drug library screen for radiation sensitizers, EZ-Cytox cell viability; format: cell-based, human; design: dose or concentration left out as unconfirmed; settings: 96 hours, FIG. 1
# Protocol: MCF-7 cells, a human breast cancer cell line, were adjusted to a concentration of 5000 cells/well, then inoculated into a 96 well plate and pre-cultured for 24 hours. Subsequently, the medium was removed, and each drug in Enzo's drug library at a concentration of […] was treated alone or in combination with radiation. After 96 hours, the survival rate of cells was measured by Dogen's EZ-Cytox Cell Viability Assay kit.
smiles,measurement,setting,value
"O=C1CCc2ccc(OCCCCN3CCN(c4cccc(Cl)c4Cl)CC3)cc2N1 [aripiprazole, 7-{4-[4-(2,3-dichlorophenyl)-1-piperazinyl]-butoxy}-3,4-dihydro-2(1H)-quinolinone]",induction of apoptosis in radiation-treated cancer cells,"MCF-7 cells [1]; MCF-7, aripiprazole 1, 5, 10, 20 μM with radiation",induce apoptosis in radiation-treated cancer cells in a concentration-dependent manner
same,PARP cleavage induction effect,"MCF-7 cells [1]; MCF-7, aripiprazole 1, 5, 10, 20 μM, combination with radiation vs alone",more excellent when treated in combination with radiation than treated aripiprazole alone
same,DNA fragmentation inducing effect,U251 cells,superior to the effect of adding up each treatment
same,DNA fragmentation inducing effect,MCF-7 cells [2],superior to the effect of adding up each treatment
same,radiation sensitizing effect,"MCF-7 cells [3]; MCF-7, aripiprazole 5, 10, 20 μM with radiation",excellent radiation sensitizing effect in a concentration-dependent manner
same,survival rate reduction effect,"MCF-7 cells [3]; MCF-7, aripiprazole 5, 10, 20 µM, combination with radiation vs alone",more excellent when treated in combination with radiation than the treatment with aripiprazole alone
same,survival rate of cells,"MCF-7 cells [4]; MCF-7, drug treatment alone",no effect on the survival rate of cells
same,survival rate of cells,"MCF-7 cells [4]; MCF-7, in combination with radiation",lowers the survival rate of radiation-resistant cells

# Source: US20260272916A1, “RADIATION SENSITIVITY ENHANCING COMPOSITION CONTAINING ARIPIPRAZOLE AS ACTIVE INGREDIENT” (KOREA INSTITUTE OF RADIOLOGICAL & MEDICAL SCIENCES, priority 2018, published 2026)
